# Assay results published in patent publication US5153175A, “Method of inducing sleep with GHRH complementary peptide compositions” (University of Tennesee Research Corporation, priority 1989, dated 1992).
# Ends that are not written are not given here.
# Key:
# rabbits = assay: Biological assay for sleep-promoting activity in rabbits after intracerebroventricular infusion (EEG, body movement, temperature); assay type: in vivo; settings: rabbit; for time spent in SWS / time spent in rapid-eye-movement sleep: after administration, vs control
# Protocol: Biological assays for sleep-promoting activity were performed on rabbits provided with chronically implanted ventricular guide tubes and four epidural screw electrodes for EEG. The animals were allowed at least one week to recover from surgery prior to their use for assays. Samples for testing were taken up in sterile artificial cerebrospinal fluid and a total of […] solution was infused intraventricularly (ICV) at the rate of 25 ul/min through a No. 26 hypodermic needle inserted through a guide tube. Following the infusion and removal of the infusion probe the animals were left undisturbed for 6-8 hours while EEG and bodily movements were recorded.
# Slow wave sleep (SWS) was scored in two ways: (i) by conventional subjective scoring of the duration of SWS from polygraph records and (ii) by digital print-out of integrated mean rectified cortical slow waves (1/2-4 Hz). thus obtaining a measure of the amplitude was well as duration of delta wave EEG activity. Control animals were also assayed at the same time.
# Operation and experimental procedure. Adult male New Zealand White Pasteurella-free rabbits, weighing 3-4 kg, were purchased from Myrtle's Rabbitry (Thompson Station, Tenn.). Under ketamine-xylazine (3.5-5.0 mg/kg iv) anesthesia, animals were provided with chronically implanted EEG electrodes, a glass-bead thermistor, and a cerebral ventricular guide tube (Krueger, J.M et al., Am. J. Physiol. 251 (Regulatory Integrative Comp. Physiol. 20): R591-R597, 1986; and Walter J.D. et al., Am. J. Physiol., 250 (Regulatory Integrative Comp. Physiol. 19): R96-R103, 1986). Briefly, stainless steal screws were implanted over the frontal parietal, and occipital cortex; and a small (1 mm diam) 50-k.OMEGA. thermistor (Fenwall Electronics) was placed 3 mm into the parietal cortex. Wires from Amphenol plugs (no. 223-1509) were soldered to the screws for EEG recordings and to the thermistors for brain temperature (Tbr) recordings. The ventricular guide tube was implanted 4 mm lateral to the bregma; during the implantation procedure, pressure at the tip of the infusion needle was monitored and used as an aid to locate the ventricle (See, e.g., Krueger, J.M et al., Am. J. Physiol., 246 (Regulatory Integrative Comp. Physiol. 15): R994-R999, 1984). Dental acrylic (DuzAll) was then used to insulate the leads and to secure the guide tube and EEG/thermistor plugs to the skull. A topical antibiotic (Bacitracin, Lilly) was applied to the incision, and 150,000 U of Duracillin (Lilly) were administered intramuscularly. At least 1 week was allowed for recovery.
# Animals were housed in rooms on a 12:12-h light-dark cycle (0600-1800 h light) maintained at 21 ±2° C. The day before an experiment animals were brought to experimental chambers (Hotpack model 352600) for an overnight acclimation period. Each experimental chamber was also kept at 21 ±2° C. on a 12:12-h light-dark cycle. Food and water were available ad libitum at all times. At the top of the recording chamber, BRS/LVE electrical contact swivel was fixed; this allowed the rabbits free movement during recording periods. From the other end of the swivel a cable led to a Grass polygraph model 7D. Before each recording period the rabbits were connected to the recording cable for a 1-h habituation period, but data were not collected during this time.
# Rabbits were then briefly taken out of the experimental cages and given the 3'-5' or 5'-3' CP (the "test substance"). [When animals received intracerebroventricular (ICV) injections, appropriate amounts of test substances (0.1-10.0 ul) were diluted to 50 ul with artificial CSF [3 mM KCL, 1.15 mM CaCl2 and 0.96 mM MgCl2 in pyrogen-free saline (PFS), […] NaCl (Abbott)]; these solutions were slowly infused over 2 min. […]
# [1] = amino acids added to carboxyl terminal of N-acetyl muramyl-L-alanyl-D-isoglutamine; cited from earlier work
# growth hormone release = settings: relative potency of C-terminal deleted hGHRH fragments; cited from earlier work
# lactating holstein cows = settings: cited from earlier work
# rat pituitary gland = settings: cited from earlier work
substance,measurement,setting,value
"H-DPVNIRAFDDVL-NH2 [3'-5' CP, H-Asp-Pro-Val-Asn-Ile-Arg-Ala-Phe-Asp-Asp-Val-Leu-NH2]","behavior (arousable; eat, drink and groom)",rabbits; ICV,behavior was normal
same,capacity to enhance sleep,rabbits; ICV,have the capacity to enhance sleep
same,character of the excess sleep (cycling through states of vigilance),rabbits; ICV,appeared normal
same,temperatures of the animals,rabbits; ICV,remained normal
same,time spent in SWS,rabbits; ICV,significantly more time
same,time spent in rapid-eye-movement sleep,rabbits; ICV,significantly more time
H-VEPGSLFLVPLPLLPVHDFVQQFAGI-NH2 [5'-3' CP],capacity to enhance sleep,rabbits; ICV,have the capacity to enhance sleep
same,time spent in SWS,rabbits; ICV,significantly more time
same,time spent in rapid-eye-movement sleep,rabbits; ICV,significantly more time
same,"behavior (arousable; eat, drink and groom)",rabbits; in vivo,behavior was normal
same,character of the excess sleep (cycling through states of vigilance),rabbits; in vivo,appeared normal
same,temperatures of the animals,rabbits; in vivo,remained normal
N-acetyl-muramyl-L-alanyl-D-isoglutamyl-L-diaminopimelyl alanine,somnogenic activity,[1],somnogenic activity is retained
"hGHRH (1-19): C-terminal deleted GHRH fragment (YADAIFTNSYRKVLGQLSA; Somatoliberin; UniProt P01286 32-50, looked up, fragment)",relative GH-releasing potency,growth hormone release,No activity
"hGHRH (1-24): C-terminal deleted GHRH fragment (YADAIFTNSYRKVLGQLSARKLLQ; Somatoliberin; UniProt P01286 32-55, looked up, fragment)",relative GH-releasing potency,growth hormone release,0.02%
"hGHRH (1-27): C-terminal deleted GHRH fragment (YADAIFTNSYRKVLGQLSARKLLQDIM; Somatoliberin; UniProt P01286 32-58, looked up, fragment)",relative GH-releasing potency,growth hormone release,12%
"human GHRH: Growth Hormone Releasing Hormone, hypothalamic peptide which positively regulates the synthesis and secretion of growth hormone (YADAIFTNSYRKVLGQLSARKLLQDIMSRQQGESNQERGARARL; ends and bridges not checked; UniProt P01286 32-75, looked up)",feed to milk conversion,lactating holstein cows,apparent increase
same,secretion of growth hormone,lactating holstein cows,increases the secretion of growth hormone consistently
same,GH-stimulating effect,rat pituitary gland,a GH-stimulating effect on the rat pituitary gland
